The source of these data is patent publication US7064139B2, “Method for treating retroviral infections” (Uniroyal Chemical Company, Inc., priority 2001, dated 2006).

The structures appear in SMILES notation. In brackets after ≈: the same amount, converted by molar mass.

In one assay the test system is HIV-1 (IIIB). The experiment in a line: microbe, parasite or virus in culture. Type of assay: cell-based. The conditions noted are these: CEM cells, syncytium formation, day four post infection. The text has this:
(§1) The cell type used to determine activity of the compounds of the invention herein, i.e., the test compounds, against HIV was human T-lymphoblast (CEM) cells obtained from the American Tissue Cell Culture Collection (Rockville, Md.). HIV-1 (IIIB) was originally obtained from the culture of persistently HIV-1 infected H9 cells and was provided by R. C. Gallo and M. Popovic (National Cancer Institute, National Institutes of Health, Bethesda, Md.). HIV-2 (ROD) was originally obtained from L. M. Montagnier (Pasteur Institute, Paris, France).
(§2) To determine the antiviral activity of the test compounds, CEM cells were suspended at a cell density of approximately 300,000 cells per ml of culture medium and infected with approximately 100 CCID50 (100 CCID50 being the 50% cell culture infective dose) of HIV-1 (IIIB) or HIV-2 (ROD)). Then 100 μl of the infected cell suspensions was added to 200 μl micro titer plate wells containing 100 μl of appropriate serial (5-fold) dilutions of the test compounds. The inhibitory effect of the test compounds on HIV-1 or HIV-2 syncytium formation in CEM cells was examined microscopically on day four post infection.
(§3) In these cases, the percent protection of the cells against virus-induced cytopathicity by the test compounds at the indicated compound concentration in the previous column is given.
On to `COc1ccc(C[S+]([O-])c2cccc[n+]2[O-])cc1` (centres unmarked) [Compound 86], for which the “EC50 (ug/ml) HIV-1” value was “>.8 µg/mL”.

For `Cc1ccc(C)c(C[S+]([O-])c2cccc[n+]2[O-])c1` (centres unmarked) [Compound 3], the “EC50 (ug/ml) HIV-1” value worked out at 7.20 µg/mL (≈ 27.5 µM).

Consider `[O-][n+]1c(Cl)cccc1SCc1ccccc1` [Compound 149], for which the “EC50 (ug/ml) HIV-1” value was 9.00 µg/mL (≈ 35.8 µM).

On to `O=[N+]([O-])c1ccc[n+]([O-])c1SCc1ccccc1` [Compound 146], for which the “EC50 (ug/ml) HIV-1” value was 2.30 µg/mL (≈ 8.77 µM).

For the compound `O=S(=O)(Cc1ccc2c(c1)OCO2)c1cccc[n+]1[O-]` [Compound 39], the “EC50 (ug/ml) HIV-1” value stood at 9.00 µg/mL (≈ 30.7 µM).

For `Cc1ccc(C)c(CSc2c(C)ccc[n+]2[O-])c1` [Compound 164], the “EC50 (ug/ml) HIV-1” value was determined as 1.0 µg/mL (≈ 3.86 µM).

Regarding `Cc1ccccc1C[S+]([O-])c1cccc[n+]1[O-]` (centres unmarked) [Compound 90], the “EC50 (ug/ml) HIV-1” value is “≧20 ug/ml”.

The same assay, now with this note: Human immunodeficiency virus 1, IIIB, CCRF-CEM, read-out: EC50 (ug/ml) HIV-1.
In the case of `Cc1ccc(C)c(CSc2c(Cl)ccc[n+]2[O-])c1` [Compound 133, 3-Chloro-2-[[(2,5-dimethylphenyl)methyl]thio]pyridine 1-oxide], the EC50 worked out at 0.14 µg/mL (≈ 0.5 µM).

The same assay, now with this note: Human immunodeficiency virus 1, IIIB, CCRF-CEM; CEM cells, syncytium formation, day four post infection; read-out: EC50 (ug/ml) HIV-1.
Turning to `Cc1ccc(C)c(C(C)S(=O)(=O)c2cc(C)cc[n+]2[O-])c1` (centres unmarked) [Compound 108, 2-[1-(2,5-Dimethylphenyl)ethylsulfonyl]-4-methylpyridine N-oxide], the EC50 is 0.75 µg/mL (≈ 2.46 µM).

For `O=S(=O)(Cc1c(Cl)cccc1Cl)c1cccc[n+]1[O-]` [Compound 17, 2-(2,6-Dichlorophenylmethylsulfonyl)pyridine N-oxide], the EC50 is 9 µg/mL (≈ 28.3 µM).

Turning to `O=S(=O)(Cc1c2ccccc2cc2ccccc12)c1cccc[n+]1[O-]` [Compound 51, 2[1(9-anthryl)methylsulfonyl]pyridine-N-oxide], the EC50 was more than 0.8 µg/mL.

Turning to `O=S(=O)(Cc1ccc(Cl)c(Cl)c1)c1cccc[n+]1[O-]` [Compound 37, 2-(3,4-dichlorobenzylsulfonyl)-pyridine-N-oxide], the EC50 was determined as 1 µg/mL (≈ 3.14 µM).

The same assay, now with this note: protection of CEM cells against virus-induced cytopathicity at the concentration in the previous column.
Consider `COc1ccc(C[S+]([O-])c2cccc[n+]2[O-])cc1` (centres unmarked) [Compound 86], for which the “HIV-1 % Protection” value is given as 0.0%.

As for `O=S(=O)(Cc1c2ccccc2cc2ccccc12)c1cccc[n+]1[O-]` [Compound 51, 2[1(9-anthryl)methylsulfonyl]pyridine-N-oxide], the “HIV-1 % Protection” value is given as 0.0%.

For `Cc1ccccc1C[S+]([O-])c1cccc[n+]1[O-]` (centres unmarked) [Compound 90], the “HIV-1 % Protection” value is on record as 37.5%.

The next assay concerns HIV-2 (ROD). The experiment in a line: Inhibition of HIV-2 syncytium formation in CEM cells. Type of assay: cell-based. As to conditions: CEM cells, syncytium formation, day four post infection.
Excerpt: as §1, §2, §3
As to `COc1ccc(C[S+]([O-])c2cccc[n+]2[O-])cc1` (centres unmarked) [Compound 86], the “EC50 (ug/ml) HIV-2” value is more than 0.8 µg/mL.

In the case of `Cc1ccc(C)c(C[S+]([O-])c2cccc[n+]2[O-])c1` (centres unmarked) [Compound 3], the “EC50 (ug/ml) HIV-2” value is listed as “≧20 ug/ml”.

As for `[O-][n+]1c(Cl)cccc1SCc1ccccc1` [Compound 149], the “EC50 (ug/ml) HIV-2” value was found to be 16.0 µg/mL (≈ 63.6 µM).

In the case of `O=[N+]([O-])c1ccc[n+]([O-])c1SCc1ccccc1` [Compound 146], the “EC50 (ug/ml) HIV-2” value is given as “≧20 ug/ml”.

Take `Cc1ccc(C)c(CSc2c(C)ccc[n+]2[O-])c1` [Compound 164]: the “EC50 (ug/ml) HIV-2” value is more than 20 µg/mL.

The assay is the same for the next values; noted with them: Human immunodeficiency virus 2, CCRF-CEM, read-out: EC50 (ug/ml) HIV-2.
For the compound `Cc1ccc(C)c(CSc2c(Cl)ccc[n+]2[O-])c1` [Compound 133, 3-Chloro-2-[[(2,5-dimethylphenyl)methyl]thio]pyridine 1-oxide], the EC50 was more than 20 µg/mL.

The assay is the same for the next values; noted with them: Human immunodeficiency virus 2, CCRF-CEM; CEM cells, syncytium formation, day four post infection; read-out: EC50 (ug/ml) HIV-2.
As for `Cc1ccc(C)c(C(C)S(=O)(=O)c2cc(C)cc[n+]2[O-])c1` (centres unmarked) [Compound 108, 2-[1-(2,5-Dimethylphenyl)ethylsulfonyl]-4-methylpyridine N-oxide], the EC50 was not below 20 µg/mL.

`O=S(=O)(Cc1c(Cl)cccc1Cl)c1cccc[n+]1[O-]` [Compound 17, 2-(2,6-Dichlorophenylmethylsulfonyl)pyridine N-oxide]: the EC50 is 8 µg/mL (≈ 25.1 µM).

On to `O=S(=O)(Cc1c2ccccc2cc2ccccc12)c1cccc[n+]1[O-]` [Compound 51, 2[1(9-anthryl)methylsulfonyl]pyridine-N-oxide], for which the EC50 was more than 0.8 µg/mL.

On to `O=S(=O)(Cc1ccc(Cl)c(Cl)c1)c1cccc[n+]1[O-]` [Compound 37, 2-(3,4-dichlorobenzylsulfonyl)-pyridine-N-oxide], for which the EC50 was 1.3 µg/mL (≈ 4.09 µM).

The same assay, now with this note: protection of CEM cells against virus-induced cytopathicity at the concentration in the previous column.
In the case of `Cc1ccc(C)c(C(C)S(=O)(=O)c2cc(C)cc[n+]2[O-])c1` (centres unmarked) [Compound 108, 2-[1-(2,5-Dimethylphenyl)ethylsulfonyl]-4-methylpyridine N-oxide], the “HIV-2 % Protection” value stood at 37.5%.

For the compound `COc1ccc(C[S+]([O-])c2cccc[n+]2[O-])cc1` (centres unmarked) [Compound 86], the “HIV-2 % Protection” value came to 0.0%.

For the compound `Cc1ccc(C)c(C[S+]([O-])c2cccc[n+]2[O-])c1` (centres unmarked) [Compound 3], the “HIV-2 % Protection” value amounted to 37.5%.

As to `O=S(=O)(Cc1c2ccccc2cc2ccccc12)c1cccc[n+]1[O-]` [Compound 51, 2[1(9-anthryl)methylsulfonyl]pyridine-N-oxide], the “HIV-2 % Protection” value came out at 0.0%.

As for `Cc1ccc(C)c(CSc2c(Cl)ccc[n+]2[O-])c1` [Compound 133, 3-Chloro-2-[[(2,5-dimethylphenyl)methyl]thio]pyridine 1-oxide], the “HIV-2 % Protection” value is given as 0.0%.

On to `O=[N+]([O-])c1ccc[n+]([O-])c1SCc1ccccc1` [Compound 146], for which the “HIV-2 % Protection” value was 37.5%.

Turning to `Cc1ccc(C)c(CSc2c(C)ccc[n+]2[O-])c1` [Compound 164], the “HIV-2 % Protection” value is listed as 0.0%.

The next assay has as its system Davis strain CMV. Kind of assay: Reduction of CMV-induced cytopathicity in HEL cells. As to conditions: HEL cells, estimate of percent protection at the concentration in the previous column. The format is cell-based, human cytomegalovirus (HCMV). Here is the method: Confluent HEL cells grown in […] microtiter plates were inoculated with CMV at an input of 100 PFU (plaque forming units) per well. After a one to two hour incubation period, residual virus was removed and the infected cells were further incubated with MEM (Minimal Essential Medium) (supplemented with 2% inactivated Fetal Calf Serum (FCS), […], and 0.3% sodium bicarbonate) containing varying concentrations of the test compounds. Antiviral activity was expressed as EC50 (50% effective concentration), or test compound concentration required to reduce virus-induced cytopathicity after seven days by 50% compared to the untreated control.
In some cases, the compounds had considerable cytotoxicity against HEL cells, which made determination of the EC50 difficult. In these cases, an estimate of the percent protection at the compound concentration indicated in the previous columns is given.
With `O=S(=O)(Cc1ccc(Cl)c(Cl)c1)c1cccc[n+]1[O-]` [Compound 37, 2-(3,4-dichlorobenzylsulfonyl)-pyridine-N-oxide], the “Antiviral % Inhibition Davis strain CMV” value is on record as 30.0%.

Regarding `O=S(=O)(Cc1ccc2c(c1)OCO2)c1cccc[n+]1[O-]` [Compound 39], the “Antiviral % Inhibition Davis strain CMV” value is recorded as 30.0%.

The assay is the same for the next values; noted with them: HEL cells, virus-induced cytopathicity after seven days.
Take `COc1ccc(C[S+]([O-])c2cccc[n+]2[O-])cc1` (centres unmarked) [Compound 86]: the “Antiviral EC50 (ug/ml) Davis strain CMV” value was 3.8 µg/mL.

Take `Cc1ccc(C)c(C[S+]([O-])c2cccc[n+]2[O-])c1` (centres unmarked) [Compound 3]: the “Antiviral EC50 (ug/ml) Davis strain CMV” value came to 36.0 µg/mL.

Consider `[O-][n+]1c(Cl)cccc1SCc1ccccc1` [Compound 149], for which the “Antiviral EC50 (ug/ml) Davis strain CMV” value came to 20.0 µg/mL.

`O=[N+]([O-])c1ccc[n+]([O-])c1SCc1ccccc1` [Compound 146]: the “Antiviral EC50 (ug/ml) Davis strain CMV” value amounted to 40.0 µg/mL.

In the case of `Nc1ccn(C[C@@H](CO)OCP(=O)(O)O)c(=O)n1` [S-HPMPC, reference compound], the “Antiviral EC50 (ug/ml) Davis strain CMV” value came to 0.3 µg/mL.

In the case of `O=S(=O)(Cc1ccc2c(c1)OCO2)c1cccc[n+]1[O-]` [Compound 39], the “Antiviral EC50 (ug/ml) Davis strain CMV” value was more than 20 µg/mL.

As to `Nc1nc2c(ncn2COC(CO)CO)c(=O)[nH]1` [DHPG, reference compound], the “Antiviral EC50 (ug/ml) Davis strain CMV” value amounted to 1 µg/mL.

With `Cc1ccccc1C[S+]([O-])c1cccc[n+]1[O-]` (centres unmarked) [Compound 90], the “Antiviral EC50 (ug/ml) Davis strain CMV” value amounted to 37.0 µg/mL.

The same assay, now with this note: Human betaherpesvirus 5, 168 h; HEL cells, virus-induced cytopathicity after seven days; read-out: Antiviral EC50 (ug/ml) Davis strain CMV.
Take `Cc1ccc(C)c(C(C)S(=O)(=O)c2cc(C)cc[n+]2[O-])c1` (centres unmarked) [Compound 108, 2-[1-(2,5-Dimethylphenyl)ethylsulfonyl]-4-methylpyridine N-oxide]: the EC50 was determined as 38 µg/mL (≈ 124 µM).

Take `O=S(=O)(Cc1c(Cl)cccc1Cl)c1cccc[n+]1[O-]` [Compound 17, 2-(2,6-Dichlorophenylmethylsulfonyl)pyridine N-oxide]: the EC50 came out at 5 µg/mL (≈ 15.7 µM).

Regarding `O=S(=O)(Cc1c2ccccc2cc2ccccc12)c1cccc[n+]1[O-]` [Compound 51, 2[1(9-anthryl)methylsulfonyl]pyridine-N-oxide], the EC50 is 1.3 µg/mL (≈ 3.72 µM).

In the case of `O=S(=O)(Cc1ccc(Cl)c(Cl)c1)c1cccc[n+]1[O-]` [Compound 37, 2-(3,4-dichlorobenzylsulfonyl)-pyridine-N-oxide], the EC50 is more than 5 µg/mL.

The same assay, now with this note: Human betaherpesvirus 5, HEL, 168 h, read-out: Antiviral EC50 (ug/ml) Davis strain CMV.
For `Cc1ccc(C)c(CSc2c(Cl)ccc[n+]2[O-])c1` [Compound 133, 3-Chloro-2-[[(2,5-dimethylphenyl)methyl]thio]pyridine 1-oxide], the EC50 turned out to be 25 µg/mL (≈ 89.4 µM).
